Columns and labels:
Phosphodiesterase 3 = Phosphodiesterase 3 (Homo sapiens, UniProt Q14432+Q13370); test: Inhibition of human platelet PDE3
Plasma = test: Inhibition of 10.0 ug/mL collagen-induced platelet aggregation in human platelet rich plasma; assay type: functional

Compound | IC50 (Phosphodiesterase 3) [µM] | IC50 (Plasma) [µM]
O=c1cc(N2CCNCC2)c2ccccc2o1 | – | 36
O=c1cc(N2CCNCC2)oc2ccccc12 | – | 60

The next lines start with results.

IC50 (Phosphodiesterase 3) [µM] | Compound | IC50 (Plasma) [µM]
0.078 | Cc1c(OCCN2CCOCC2)ccc2c(N3CCNCC3)cc(=O)oc12 | –
0.037 | Cc1c(OCc2cccnc2)ccc2c(N3CCNCC3)cc(=O)oc12 | –
0.28 | O=C1CCc2cc(OCCCCc3nnnn3C3CCCCC3)ccc2N1 [CILOSTAZOL] | –

Source: ChEMBL document CHEMBL1143688 (J Med Chem, 2007)
